In US20070059704A1, “Detection system” (priority 2003, published 2007):

Tested on: J3130
Assay: Bioassay: induction of growth of drug-dependent femX null mutant J3130 by antibiotics applied on paper discs
Assay type: cell-based, Streptomyces coelicolor
Settings: for induction of growth of J3130 around the paper disc: paper disc on MMT medium spread with J3130 spores, result in words
Excerpt: To see if growth of J3130 could be induced by control antibiotics known to target the cell envelope, spores of J3130 were spread on MMT medium (Kieser et al, 2000) and potential inducers were applied on paper discs to the freshly spread plates. […] None of the other antibiotics tested, including many cell wall-specific non-glycopeptide antibiotics, induced growth of J3130.
In order to perform the assay of the invention, spores of J3130 are spread on MMT medium at concentration of approximately 5×10^6/12 cm^2 plate. Test compound is applied on paper discs to a number of freshly spread plates in parallel using a different concentration of the test compound in each plate.

Molecule	induction of growth of J3130 around the paper disc	amount that gives a positive reaction in the bioassay (initial assessment of sensitivity) (J3130 bioassay, two-fold dilution series) [ng]
N[C@H]1C(=O)N[C@@H]2Cc3ccc(c(Cl)c3)Oc3cc4cc(c3O)Oc3ccc(cc3Cl)[C@@H](O)[C@@H]3NC(=O)[C@H](NC(=O)[C@@H]4NC(=O)[C@@H](NC2=O)c2cc(O)cc(c2)Oc2cc1ccc2OS(=O)(=O)O)c1cc(Cl)c(O)c(c1)-c1c(O)cc(O)cc1[C@@H](C(=O)O)NC3=O [A47934]	induced a halo of growth	
CN[C@H](CC(C)C)C(=O)N[C@H]1C(=O)N[C@@H](CC(N)=O)C(=O)N[C@H]2C(=O)N[C@H]3C(=O)N[C@H](C(=O)N[C@H](C(=O)O)c4cc(O)cc(O)c4-c4cc3ccc4O)[C@H](O[C@H]3C[C@](C)(N)[C@@H](O)[C@H](C)O3)c3ccc(c(Cl)c3)Oc3cc2cc(c3O[C@@H]2O[C@H](CO)[C@@H](O)[C@H](O)[C@H]2O[C@H]2C[C@](C)(N)[C@@H](O)[C@H](C)O2)Oc2ccc(cc2Cl)[C@H]1O [Chloroeremomycin]	induced a halo of growth	
CN[C@H](CC(C)C)C(=O)N[C@H]1C(=O)N[C@@H](CC(N)=O)C(=O)N[C@H]2C(=O)N[C@H]3C(=O)N[C@H](C(=O)N[C@H](C(=O)O)c4cc(O)cc(O)c4-c4cc3ccc4O)[C@H](O)c3ccc(c(Cl)c3)Oc3cc2cc(c3O[C@@H]2O[C@H](CO)[C@@H](O)[C@H](O)[C@H]2O[C@H]2C[C@](C)(N)[C@H](O)[C@H](C)O2)Oc2ccc(cc2Cl)[C@H]1O [Vancomycin]	induced a halo of growth	80
Ristocetin	induced a halo of growth	
